Source: publication PMC6269853, “Synthesis and Biological Evaluation of Unsymmetrical Curcumin Analogues as Tyrosinase Inhibitors” (Molecules, 2013)
pIC50: −log10 of the molar value.

Experiments:
mushroom tyrosinase [1] = assay: Diphenolase inhibitory activity of mushroom tyrosinase (L-DOPA oxidation, spectrophotometric); assay type: biochemical; conditions: for pIC50: L-DOPA 0.5 mM, pH 6.8, 25 °C
Protocol: UCAs 3a–k, 4a–i were subjected to tyrosinase inhibitory assays by measuring the oxidation of L-DOPA according to the literature protocol.
The spectrophotometric assay for tyrosinase was performed according to the reported method with slight modifications. Briefly, all the synthesized compounds were screened for the diphenolase inhibitory activity of tyrosinase using L-DOPA as the substrate. All compounds were dissolved in DMSO. The final concentration of the test solution was 2.0%. Phosphate buffer (pH = 6.8) was used to dilute the DMSO stock solution of test compounds. Thirty units of mushroom tyrosinase (0.5 mg/mL) were firstly pre-incubated with these compounds in 50 mM phosphate buffer (pH = 6.8) at 25 °C for 10 min. L-DOPA (0.5 mM) was then added to the reaction mixture and the enzyme reaction was monitored by measuring the change in absorbance at 475 nm of the formation of L-DOPA chrome for 1 min. The measurement was performed for three times for each concentration and averaged before further calculations. IC50 values were determined by the interpolation of the dose–response curves.

CD-1 mice = assay: Acute oral toxicity in mice (OECD 423); assay type: in vivo; conditions: for Body Weight: last day; for Drinking Water / Food Intake: measured daily and averaged; for autopsy, changes in organs: mice, 1,200 mg/kg, end of experimental period (14 days)
Protocol: 3d and 3j were used as the representative compounds to evaluate the toxicity in mice.
The acute toxicity of compound 3d was examined according to the OECD 423 Guideline for Testing of Chemicals Acute Oral Toxicity – Acute Toxic Class Method procedures. The test procedure was applied with an initial dose at 1,200 mg/kg. Male and female CD-1 mice (six males and six females; 7~8 weeks old) were obtained from Center of Animal Test of the Sun Yat-sen University, housed in the University-approved animal facility in rooms maintained at 22 ± 2 °C with 55%–60% humidity and 12 h photoperiod. After five-day adaptation to laboratory conditions, mice were divided into four equal groups (controls: male, female, and treated: male and female, three animals in each group, equal body mass) and given by gavage either a single dosage of 1,200 mg 3d (dispersed in 3% Tween 80 aqueous solution)/kg, and equal volumes of distilled water containing 3% Tween 80 for control groups, using a suitably graduated syringe and a stainless steel intubation cannula. Mice had free access to distilled water and commercial standard diet. Animals were observed individually after dosing at least once during the first 30 min, periodically during the first 24 h, with special attention given during the first 4 h, and daily thereafter, for a total of 14 days. All observations were systematically recorded with individual records being maintained for each animal. Individual body weight of animals was determined shortly before the test substance was administered and weekly thereafter. All the animals were sacrificed at the end of the observation period and subjected to a necropsy. The same procedure was performed for compound 3j.

mushroom tyrosinase [2] = assay: Inhibition kinetics by Lineweaver-Burk plots; assay type: biochemical; conditions: oxidation of L-DOPA
Protocol: The inhibitory mechanism of selected compounds 3c, 3d, 3i and 3j against mushroom tyrosinase during the oxidation of L-DOPA was determined by the same methods. […] However, 3d and 3j containing m-dihydroxyl groups on ring B were competitive inhibitors because the intersection of those straight lines was on the Y-axis.
Concentrations of 3c, 3d, 3i and 3j for curves 1–3 were 0.0 μM, 4.06 μM, 12.18 μM; 0.0 μM, 4.06 μM, 16.23 μM; 0.0 μM, 14.8 μM, 59.2 μM; 0.0 μM, 3.70 μM, 11.09 μM, respectively.
Pre-incubation and measurement time was the same as the procedure in section 3.3. Maximal initial velocity was determined from initial linear portion of absorbance between 0 and 60 s after addition of mushroom tyrosinase. The inhibition type on the enzyme was assayed by Lineweaver–Burk plots, and the inhibition constant was determined by the second plots of the apparent Km/Vm or 1/Vm versus the concentration of compound. The same procedure was executed for other compounds.

| Compound | melting point [°C] | pIC50 (mushroom tyrosinase [1]) | also measured |
| --- | --- | --- | --- |
| COc1cc(C=CC(=O)C=Cc2ccc(O)cc2)cc(OC)c1O [Compound 4d, 1-(4-Hydroxy-3,5-dimethoxyphenyl)-5-(4-hydroxyphenyl)penta-1,4-dien-3-one] | 93 to 95 | 5.14 | – |
| O=C1C(=Cc2ccc(O)cc2)CCC1=Cc1cc(Br)c(O)c(Br)c1 [Compound 3h, 2-(3,5-Dibromo-4-hydroxybenzylidene)-5-(4-hydroxybenzylidene)cyclopentanone] | 286 to 288 | < 3.70 | – |
| O=C1C(=Cc2ccc(O)cc2)CCC1=Cc1ccc(O)cc1O [Compound 3d, 2-(2,4-Dihydroxybenzylidene)-5-(4-hydroxybenzylidene)cyclopentanone] | – | 5.76 | Body Weight (CD-1 mice; female CD-1 mice, 1,200 mg/kg): 27.3 ± 2.9 g; Drinking Water (CD-1 mice; female CD-1 mice, 1,200 mg/kg): 4.2 ± 0.5 mL/day; Food Intake (CD-1 mice; female CD-1 mice, 1,200 mg/kg): 4.0 ± 0.4 g/day; Body Weight (CD-1 mice; male CD-1 mice, 1,200 mg/kg): 30.9 ± 2.6 g; Drinking Water (CD-1 mice; male CD-1 mice, 1,200 mg/kg): 5.6 ± 0.6 mL/day; Food Intake (CD-1 mice; male CD-1 mice, 1,200 mg/kg): 5.1 ± 0.5 g/day; autopsy, changes in organs (CD-1 mice): no apparent changes; fold lower IC50 than kojic acid (mushroom tyrosinase [1]): about 16 fold; course of enzyme activity inhibition (mushroom tyrosinase [1]; diphenolase activity, L-DOPA, 25 °C, Figure 1): concentration-dependent; fold lower IC50 than 4-butylresorcinol (mushroom tyrosinase [1]; vs 4-butylresorcinol (11.27 μM)): ~6 fold; inhibition type (mushroom tyrosinase [2]): competitive |
| COc1cc(C=C2CCC(=Cc3cc(OC)c(O)c(OC)c3)C2=O)ccc1O [Compound 3k, 2-(4-Hydroxy-3,5-dimethoxybenzylidene)-5-(4-hydroxy-3-methoxybenzylidene)cyclopentanone] | 129 to 131 | < 3.70 | – |
| COc1ccc(C=CC(=O)C=Cc2ccc(O)cc2)cc1 [Compound 4a, 1-(4-Hydroxyphenyl)-5-(4-methoxyphenyl)penta-1,4-dien-3-one] | 114 to 116 | 3.74 | – |
| CC(C)(C)c1cc(C=C2CCC(=Cc3ccc(O)cc3)C2=O)cc(C(C)(C)C)c1O [Compound 3f, 2-(3,5-Di-tert-butyl-4-hydroxybenzylidene)-5-(4-hydroxybenzylidene)cyclopentanone] | 233 to 235 | 3.77 | – |
| 1-(3,4-Dihydroxyphenyl)-5-(4-methoxyphenyl)penta-1,4-dien-3-one [Compound 4i] | – | < 3.70 | – |
| 1-(3,4-Dihydroxyphenyl)-5-(4-hydroxy-3-methoxyphenyl)penta-1,4-dien-3-one [Compound 4g] | – | < 3.70 | – |
| COc1cc(C=C2CCC(=Cc3ccc(O)cc3)C2=O)ccc1O [Compound 3b, 2-(4-Hydroxy-3-methoxybenzylidene)-5-(4-hydroxybenzylidene)cyclopentanone] | 278 to 280 | 4.25 | fold difference in activity versus 3c (mushroom tyrosinase [1]; decrease relative to 3c): > 8 fold |
| COc1ccc(C=C2CCC(=Cc3ccc(O)cc3)C2=O)cc1 [Compound 3a, 2-(4-Hydroxybenzylidene)-5-(4-methoxybenzylidene)cyclopentanone] | 241 to 243 | 3.72 | – |
| COc1cc(C=C2CCC(=Cc3ccc(O)cc3)C2=O)cc(OC)c1O [Compound 3e, 2-(4-Hydroxy-3,5-dimethoxybenzylidene)-5-(4-hydroxybenzylidene)cyclopentanone] | 259 to 261 | 5.02 | – |
| COc1cc(C=C2CCC(=Cc3ccc(O)c(O)c3)C2=O)ccc1O [Compound 3i, 2-(3,4-Dihydroxybenzylidene)-5-(4-hydroxy-3-methoxybenzylidene)cyclopentanone] | > 300 | – | inhibition type (mushroom tyrosinase [2]): mixed-competitive |
| CCCCc1ccc(O)cc1O [4-Butylresorcinol, reference compound] | – | 4.95 | – |
| O=C1C(=Cc2ccc(O)cc2)CCC1=Cc1ccc(O)c(O)c1 [Compound 3c, 2-(3,4-Dihydroxybenzylidene)-5-(4-hydroxybenzylidene)cyclopentanone] | > 300 | 5.11 | inhibition type (mushroom tyrosinase [2]): mixed-competitive |
| COc1cc(C=C2CCC(=Cc3ccc(O)cc3O)C2=O)ccc1O [Compound 3j, 2-(2,4-Dihydroxybenzylidene)-5-(4-hydroxy-3-methoxybenzylidene)cyclopentanone] | – | – | Body Weight (CD-1 mice; female CD-1 mice, 1,200 mg/kg): 26.9 ± 2.1 g; Drinking Water (CD-1 mice; female CD-1 mice, 1,200 mg/kg): 4.1 ± 0.4 mL/day; Food Intake (CD-1 mice; female CD-1 mice, 1,200 mg/kg): 3.9 ± 0.5 g/day; Body Weight (CD-1 mice; male CD-1 mice, 1,200 mg/kg): 30.1 ± 2.8 g; Drinking Water (CD-1 mice; male CD-1 mice, 1,200 mg/kg): 5.4 ± 0.5 mL/day; Food Intake (CD-1 mice; male CD-1 mice, 1,200 mg/kg): 5.2 ± 0.4 g/day; autopsy, changes in organs (CD-1 mice): no apparent changes; inhibition type (mushroom tyrosinase [2]): competitive |
| COc1cc(C=C2CCC(=Cc3ccc(O)cc3)C2=O)cc(Br)c1O [Compound 3g, 2-(3-Bromo-4-hydroxy-5-methoxybenzylidene)-5-(4-hydroxybenzylidene)cyclopentanone] | 241 to 243 | 3.76 | – |
| O=C(C=Cc1ccc(O)cc1)C=Cc1ccc(O)c(O)c1 [Compound 4c, 1-(3,4-Dihydroxyphenyl)-5-(4-hydroxyphenyl)penta-1,4-dien-3-one] | 181 to 183 | 5.33 | – |
| COc1cc(C=CC(=O)C=Cc2ccc(O)cc2)ccc1O [Compound 4b, 1-(4-Hydroxy-3-methoxyphenyl)-5-(4-hydroxyphenyl)penta-1,4-dien-3-one] | 98 to 101 | 4.33 | – |
| 1-(4-Hydroxy-3,5-dimethoxyphenyl)-5-(4-hydroxy-3-methoxyphenyl)penta-1,4-dien-3-one [Compound 4h] | – | > 4.00 | fold difference in activity versus 4c (mushroom tyrosinase [1]; decrease relative to 4c (IC50 = 4.64 μM)): > 16 fold |
| O=C(C=Cc1ccc(O)cc1)C=Cc1cc(Br)c(O)c(Br)c1 [Compound 4e, 1-(3,5-Dibromo-4-hydroxyphenyl)-5-(4-hydroxyphenyl)penta-1,4-dien-3-one] | 110 to 113 | < 3.70 | – |
